Assay results: patent US10533207B2, “Bioactivity testing structure for single cell tracking using gelling agents” (QuantaMatrix Inc., priority 2014, dated 2020)
In brackets after ≈: the same amount, converted by molar mass.

Tests used:
Type in all cases: cell-based, Mycobacterium tuberculosis
M. tuberculosis H37Rv = experiment: DST of MTB using the DAC system (MIC from time-lapse images); details: for MIC: Mycobacterium tuberculosis, 120 h, images over 5 days; for susceptibility of the strain (in words): from the MIC data
MDR-TB clinical strain = experiment: as above; details: for susceptibility determined from the MIC data and the critical concentrations: DAC system, MDR strain; for MIC: Mycobacterium tuberculosis, 120 h
XDR-TB clinical strain = experiment: as above; details: for susceptibility determined from the MIC data and the critical concentrations: DAC system, XDR strain; for MIC: Mycobacterium tuberculosis, 120 h
standard strain H37Rv = experiment: Inoculum effect test, DST on the DAC system
clinical strain 1088 = experiment: Inoculum effect on clinical strains on the DAC system
Protocol: (§1) Mycobacterium tuberculosis identified by ZN staining and grown from an L-J slope or MGIT tube and was subjected to DST. For the preparation of inoculation from the LJ culture, colonies up to 14 days were extracted from the grown culture. The colonies were shaken with glass beads to crush large lumps. To obtain a high density (˜5×10^9 CFU/ml), the suspension was centrifuged at 3000 g for 10 min and pellets were resuspended in sterile PBS. Subsequently, the suspension was added to liquid agarose, inoculated in a bacteria-agarose mixture within the range of 10^1 to 5×10^8 CFU/ml, and loaded in the main channel After solidification, 7H9 broth containing each antibiotic was applied to the chamber. All bacterial cells were imaged with an inverted optical microscope (IS71, Olympus).
(§2) Clinical strains express various phenotypes, particularly, in drug susceptibility. […] Rifampicin, isoniazid, streptomycin, and ethambutol were used as test drugs. For the 131 strains, the highest concentration was 1.3×10^9.

clinical strain 131 = experiment: as above
Protocol: as §1, §2

clinical strain CMS = experiment: as above
Protocol: as §1, §2

clinical strain CYD = experiment: as above
Protocol: as §1, §2

clinical strain KHS = experiment: as above
Protocol: as §1, §2

clinical strain MSH = experiment: as above
Protocol: as §1, §2

[1] = inoculum 10^3/mL, DAC, unit inferred
[2] = inoculum 10^4/mL, DAC, unit inferred
[3] = inoculum 10^5/mL, DAC, unit inferred
[4] = inoculum 10^6/mL, MAC2, unit inferred
[5] = inoculum 10^7/mL, MAC2, unit inferred

| Compound | susceptibility determined from the MIC data and the critical concentrations (M. tuberculosis H37Rv) | MIC (M. tuberculosis H37Rv) | susceptibility determined from the MIC data and the critical concentrations (MDR-TB clinical strain) | MIC (MDR-TB clinical strain) | susceptibility determined from the MIC data and the critical concentrations (XDR-TB clinical strain) | MIC (XDR-TB clinical strain) | MIC (DAC) (standard strain H37Rv; [1]) | MIC (DAC) (standard strain H37Rv; [2]) | MIC (DAC) (standard strain H37Rv; [3]) | MIC (DAC) (standard strain H37Rv; [4]) | MIC (DAC) (standard strain H37Rv; [5]) | MIC (DAC) (clinical strain 1088; [1]) | MIC (DAC) (clinical strain 1088; [2]) | MIC (DAC) (clinical strain 1088; [3]) | MIC (DAC) (clinical strain 1088; [4]) | MIC (DAC) (clinical strain 1088; [5]) | MIC (DAC) (clinical strain 131; [1]) | MIC (DAC) (clinical strain 131; [2]) | MIC (DAC) (clinical strain 131; [3]) | MIC (DAC) (clinical strain 131; [4]) | also measured |
| --- | --- | --- | --- | --- | --- | --- | --- | --- | --- | --- | --- | --- | --- | --- | --- | --- | --- | --- | --- | --- | --- |
| NNC(=O)c1ccncc1 [INH, isoniazid] | S | 0.05 µg/mL (≈ 0.365 µM) | R | > 0.2 µg/mL | R | > 0.2 µg/mL | 0.05 µg/mL (≈ 0.365 µM) | 0.05 µg/mL (≈ 0.365 µM) | 0.05 µg/mL (≈ 0.365 µM) | 0.05 µg/mL (≈ 0.365 µM) | 0.05 µg/mL (≈ 0.365 µM) | ≥ 0.2 µg/mL | 0.2 µg/mL (≈ 1.46 µM) | 0.2 µg/mL (≈ 1.46 µM) | ≥ 0.2 µg/mL | ≥ 0.2 µg/mL | 0.2 µg/mL (≈ 1.46 µM) | > 0.2 µg/mL | > 0.2 µg/mL | > 0.2 µg/mL | susceptibility of the strain (in words) (M. tuberculosis H37Rv): sensitive; MIC (DAC) (clinical strain 131; [5]): > 0.2 µg/mL; MIC (DAC) (clinical strain CMS; [2]): 0.05 µg/mL (≈ 0.365 µM); MIC (DAC) (clinical strain CMS; [3]): 0.025 µg/mL (≈ 0.182 µM); MIC (DAC) (clinical strain CMS; [4]): 0.025 µg/mL (≈ 0.182 µM); MIC (DAC) (clinical strain CMS; [5]): 0.05 µg/mL (≈ 0.365 µM); MIC (DAC) (clinical strain CYD; [2]): 0.05 µg/mL (≈ 0.365 µM); MIC (DAC) (clinical strain CYD; [3]): 0.025 µg/mL (≈ 0.182 µM); MIC (DAC) (clinical strain CYD; [4]): 0.025 µg/mL (≈ 0.182 µM); MIC (DAC) (clinical strain CYD; [5]): 0.025 µg/mL (≈ 0.182 µM); MIC (DAC) (clinical strain KHS; [2]): 0.05 µg/mL (≈ 0.365 µM); MIC (DAC) (clinical strain KHS; [3]): 0.025 µg/mL (≈ 0.182 µM); MIC (DAC) (clinical strain KHS; [4]): 0.025 µg/mL (≈ 0.182 µM); MIC (DAC) (clinical strain KHS; [5]): 0.025 µg/mL (≈ 0.182 µM); MIC (DAC) (clinical strain MSH; [2]): 0.025 µg/mL (≈ 0.182 µM); MIC (DAC) (clinical strain MSH; [3]): 0.025 µg/mL (≈ 0.182 µM); MIC (DAC) (clinical strain MSH; [4]): 0.025 µg/mL (≈ 0.182 µM); MIC (DAC) (clinical strain MSH; [5]): 0.025 µg/mL (≈ 0.182 µM) |
| CO[C@H]1/C=C/O[C@@]2(C)Oc3c(C)c(O)c4c(O)c(c(/C=N/N5CCN(C)CC5)c(O)c4c3C2=O)NC(=O)/C(C)=C\C=C\[C@H](C)[C@H](O)[C@@H](C)[C@@H](O)[C@@H](C)[C@H](OC(C)=O)[C@@H]1C [RFP, rifampicin] | S | 0.25 µg/mL (≈ 0.304 µM) | R | > 2 µg/mL | R | > 2 µg/mL | 0.5 µg/mL (≈ 0.608 µM) | 0.5 µg/mL (≈ 0.608 µM) | 0.5 µg/mL (≈ 0.608 µM) | 0.5 µg/mL (≈ 0.608 µM) | 0.5 µg/mL (≈ 0.608 µM) | ≥ 2 µg/mL | ≥ 2 µg/mL | ≥ 2 µg/mL | ≥ 2 µg/mL | ≥ 2 µg/mL | > 2 µg/mL | > 2 µg/mL | > 2 µg/mL | > 2 µg/mL | MIC (DAC) (clinical strain 131; [5]): > 2 µg/mL; MIC (DAC) (clinical strain CMS; [2]): 0.25 µg/mL (≈ 0.304 µM); MIC (DAC) (clinical strain CMS; [3]): 0.25 µg/mL (≈ 0.304 µM); MIC (DAC) (clinical strain CMS; [4]): 0.5 µg/mL (≈ 0.608 µM); MIC (DAC) (clinical strain CMS; [5]): 0.5 µg/mL (≈ 0.608 µM); MIC (DAC) (clinical strain CYD; [2]): 0.25 µg/mL (≈ 0.304 µM); MIC (DAC) (clinical strain CYD; [3]): 0.25 µg/mL (≈ 0.304 µM); MIC (DAC) (clinical strain CYD; [4]): 0.25 µg/mL (≈ 0.304 µM); MIC (DAC) (clinical strain CYD; [5]): 0.5 µg/mL (≈ 0.608 µM); MIC (DAC) (clinical strain KHS; [2]): 0.25 µg/mL (≈ 0.304 µM); MIC (DAC) (clinical strain KHS; [3]): 0.25 µg/mL (≈ 0.304 µM); MIC (DAC) (clinical strain KHS; [4]): 0.25 µg/mL (≈ 0.304 µM); MIC (DAC) (clinical strain KHS; [5]): 0.5 µg/mL (≈ 0.608 µM); MIC (DAC) (clinical strain MSH; [2]): 0.25 µg/mL (≈ 0.304 µM); MIC (DAC) (clinical strain MSH; [3]): 0.25 µg/mL (≈ 0.304 µM); MIC (DAC) (clinical strain MSH; [4]): 0.25 µg/mL (≈ 0.304 µM); MIC (DAC) (clinical strain MSH; [5]): 0.5 µg/mL (≈ 0.608 µM) |
| [H]/N=C(/N)N[C@H]1[C@H](O)[C@@H](O)[C@H](O[C@@H]2O[C@@H](C)[C@](O)(C=O)[C@H]2O[C@@H]2O[C@@H](CO)[C@H](O)[C@@H](O)[C@@H]2NC)[C@@H](N/C(N)=N\[H])[C@@H]1O [SM, streptomycin] | R | 2 µg/mL (≈ 3.44 µM) | R | > 4 µg/mL | R | > 4 µg/mL | 2 µg/mL (≈ 3.44 µM) | 2 µg/mL (≈ 3.44 µM) | 2 µg/mL (≈ 3.44 µM) | 2 µg/mL (≈ 3.44 µM) | > 2 µg/mL | ≥ 4 µg/mL | ≥ 4 µg/mL | ≥ 4 µg/mL | ≥ 4 µg/mL | ≥ 4 µg/mL | > 4 µg/mL | > 4 µg/mL | > 4 µg/mL | > 4 µg/mL | susceptibility of the strain (in words) (M. tuberculosis H37Rv): sensitive; MIC (DAC) (clinical strain 131; [5]): > 4 µg/mL; MIC (DAC) (clinical strain CMS; [2]): 0.5 µg/mL (≈ 0.86 µM); MIC (DAC) (clinical strain CMS; [3]): 0.5 µg/mL (≈ 0.86 µM); MIC (DAC) (clinical strain CMS; [4]): 1 µg/mL (≈ 1.72 µM); MIC (DAC) (clinical strain CMS; [5]): 1 µg/mL (≈ 1.72 µM); MIC (DAC) (clinical strain CYD; [2]): 0.5 µg/mL (≈ 0.86 µM); MIC (DAC) (clinical strain CYD; [3]): 0.25 µg/mL (≈ 0.43 µM); MIC (DAC) (clinical strain CYD; [4]): 0.5 µg/mL (≈ 0.86 µM); MIC (DAC) (clinical strain CYD; [5]): 1 µg/mL (≈ 1.72 µM); MIC (DAC) (clinical strain KHS; [2]): 0.5 µg/mL (≈ 0.86 µM); MIC (DAC) (clinical strain KHS; [3]): 0.25 µg/mL (≈ 0.43 µM); MIC (DAC) (clinical strain KHS; [4]): 0.5 µg/mL (≈ 0.86 µM); MIC (DAC) (clinical strain KHS; [5]): 1 µg/mL (≈ 1.72 µM); MIC (DAC) (clinical strain MSH; [2]): 0.25 µg/mL (≈ 0.43 µM); MIC (DAC) (clinical strain MSH; [3]): 0.25 µg/mL (≈ 0.43 µM); MIC (DAC) (clinical strain MSH; [4]): 1 µg/mL (≈ 1.72 µM); MIC (DAC) (clinical strain MSH; [5]): 0.5 µg/mL (≈ 0.86 µM) |
